One test concerns the target 23S rRNA. The experiment in a line: Bond constant by competitive luminescence anisotropy (CRP probe displacement), 23S rRNA. As to conditions: read-out: binding force (KD) against 23S RNA; luminescence anisotropy competition with CRP, 20° C., HEPES pH 7.5; read-out: binding force (KD) against 32S RNA. As to the method:
(§1) A sense DNA of 16S rRNA (sequence listing 1) and an antisense DNA of 16S rRNA (sequence listing 2); a sense DNA of RRE RNA (sequence listing 3) and an antisense DNA of RRE RNA (sequence listing 4); and a sense DNA of 23S RNA (sequence listing 5) and an antisense DNA of 23S RNA (sequence listing 6) was prepared according to the present invention.
(§2) Paricularly, the two DNAs comprising sense and antisense (2.5 nanomole, respectively), 5× buffer solution (200 mM Tris-HCl, 30 mM MgCl2, 10 mM spermidine, 50 mM NaCl, pH 7.9; 20 μl), 100 mM DL-dithiotheitol (DTT; 20 μl), four nucleotide tri phosphate mixture (2.5 mM, 20 μl), T7 RNA polymerase (50 units/mL; 1 μl) and diluted water (34 μl) were mixed and cultured at 37° C. for 2 hours. And then 1 unit/ml of Rnase-free RQ1 Dnase was added to the mixture and cultured at 37° C. for 10 minutes. 100 μl of a PCI mixture solution (phenol:chloroform:[…]=25:24:1) was added to the obtained mixture, mixed at room temperature for 5 minutes and then centrifuged at 1400 rpm for 10 minutes. […]
(§3) The paromomycin bonded with tetramethylrhodamine (hereinafter referred to as “[…]”) is used as a luminescence fluorescent probe. The luminescence anisotropy is measured by establishing a thermostat of 20° C. at the Perkin-Elmer LS-50B luminescence spectroscope. The luminescence absorptance of CRP is 510 nm and its luminescence fluorescent is observed at 550 nm. […]

The target of a further test is 16S rRNA. Description: Bond constant by competitive luminescence anisotropy (CRP probe displacement), 16S rRNA. As to conditions: luminescence anisotropy competition with CRP, 20° C., HEPES pH 7.5; read-out: binding force (KD) against 16s rRNA. As to the method: as §1, §2, §3
The target of the next test is RRE RNA. Description: Bond constant by competitive luminescence anisotropy (CRP probe displacement), RRE RNA. As to conditions: luminescence anisotropy competition with CRP, 20° C., HEPES pH 7.5; read-out: binding force (KD) against RRE RNA. As to the method:
as §1, §2, §3

The text below walks through data of patent publication US20050222055A1 (priority 2002, published 2005).

As usually defined, the Kd is the equilibrium constant for the complex coming apart. As to Neomycin, the Kd was over 2000 nM at 23S rRNA, over 2000 nM at 16S rRNA and 180 nM on RRE RNA.
